Assay results from patent publication EP0931836B1, “Vasopermeability enhancing peptide of human interleukin-2 and immunoconjugates thereof” (priority 1998, dated 2004).
One block for each molecule: values may come before it.

Assays:
[1] = tested on: Raji tumor-bearing nude mice; experiment: In vivo vasopermeability / biodistribution study, Raji lymphoma model (Lym-1 immunoconjugates)
Procedure: The Raji lymphoma cell line was used to produce heterotransplants in 6-week-old female nude mice by the subcutaneous injection of a 0.2 ml inoculum consisting of 4 x 10^7 Raji cells and 4 x 10^6 human fetal fibroblast feeder cells in the left thigh. Three days prior to injection, the mice were irradiated with 400 rads using a cesium irradiator to ensure a high take rate of the implanted cells. The tumors were grown for 14-18 days until they grew to approximately 1 cm in diameter.
To test the relative effects of the immunoconjugates on the biodistribution and tumor uptake of Lym-1 or TNT-1 in tumor-bearing mice, separate groups of 4-5 mice were given intravenous injections of 30 µg of antibody alone or antibody conjugate. At 2.5 hr after injection, each group received 50 µCi of ^125I-labeled Lym-1 or TNT-1 F(ab')2 fragment as tracer.
All animals were sacrificed 72 hr later, by sodium pentobarbital overdose, for biodistribution analysis. Various organs, blood, and tumor were removed, weighed, and samples were counted in a gamma counter. For each mouse, data were expressed as tumor:organ ratio (cpm per gram tumor/cpm per gram organ) and percent injected dose/gram (%ID/g).
Each peptide and rhIL-2, as well as their respective immunoconjugates with MAb Lym-1, were assayed for their ability to induce tumor vascular permeability and enhanced antibody uptake in Raji tumor-bearing nude mice.

[2] = biological target: nucleohistones expressed in the nucleus of mammalian cells; experiment: paraformaldehyde-acetone-treated cell assay, 125I-labeled F(ab')2
[3] = biological target: variant of the HLA-Dr antigen expressed on the cell surface of human B-lymphocytes and malignant lymphomas (on Raji Burkitt's lymphoma cells) (human); experiment: live cell radioimmunoassay on Raji cells, 125I-labeled F(ab')2

Molecule: 3C: synthetic peptide fragment of IL-2, amino acid sequence 22-58 (SEQ ID NO: 1), permeability enhancing peptide (QMILNGINNYKNPKLTRMLTFKFYMPKKATELKHLQC) [Fragment 3C]
vasopermeability effects of Lym-1/IL-2 chemical conjugate ([1]; named peptide tested as vasoconjugate (joined to delivery vehicle, Lym-1), relative to IL-2 immunoconjugate): approximately 100% | Vasopermeability (%Lym-1/IL-2) ([1]; tumor vascular permeability and enhanced antibody uptake in Raji tumor-bearing nude mice, relative to Lym-1/IL-2, 30-40 pM of peptide per assay): 0 %Lym-1/IL-2

immunoreactivity [2]: > 80%
Molecule: 125I-labeled F(ab')2 fragment of murine monoclonal antibody TNT-1 (IgG2a)

percent bound (immunoreactivity) [3]: 80%
B1: 125I-labeled F(ab')2 fragment of murine monoclonal antibody Lym-1 (IgG2a) (antibody, from another filing, V domains shown)
VH: QLKESGPGLVAPSQSLSITCTISGFSLTSYGVHWVRQPPGKGLEWLVVIWSDGSTTYNSALKSRLSISKDNSKSQVFLKMNSLQTDDTAIYYCASHYGSTLAFASWGHGTLVTVSA
VL: DIQMTQSPASLSASVGETVTIICRASVNIYSYLAWYQQKQGKSPQLLVYNAKILAEGVPSRFSGSGSGTQFSLKINSLQPEDFGSYYCQHHYGTFTFGSGTKLEIK
